# Source: the supplement of paper PMC10307832
# Columns and labels:
# Experiment in all cases: relative viability (nuclei count vs DMSO), 5 days (fraction); higher = more cells survive
# [1] = compound: CCN1CCN(c2ccc(Nc3cc(N(C)C(=O)Nc4c(Cl)c(OC)cc(OC)c4Cl)ncn3)cc2)CC1 [BGJ398] + CS(=O)(=O)CCNCc1ccc(-c2ccc3ncnc(Nc4ccc(OCc5cccc(F)c5)c(Cl)c4)c3c2)o1 [Lapatinib] (partner 2 µM)
# Outline: (§1)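 Medians of duplicate plates are given as relative viability. That measure is the nuclei count in treated wells divided by the count in vehicle wells. Counts were taken on 4× images of lung cancer cell lines in 1536-well plates, 5 days after pin-tool dosing the day after seeding with one drug alone or a fixed anchor-drug dose plus five library-drug doses (not always all listed) in √10 steps.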
# [2] = compound: CCN1CCN(c2ccc(Nc3cc(N(C)C(=O)Nc4c(Cl)c(OC)cc(OC)c4Cl)ncn3)cc2)CC1 [BGJ398] + CCNC(=O)c1noc(-c2cc(C(C)C)c(O)cc2O)c1-c1ccc(CN2CCOCC2)cc1 [Luminespib] (partner 0.01 µM)
# Outline: as §1
# [3] = compound: CCN1CCN(c2ccc(Nc3cc(N(C)C(=O)Nc4c(Cl)c(OC)cc(OC)c4Cl)ncn3)cc2)CC1 [BGJ398] + NC(=O)Nc1cc(-c2cccc(F)c2)sc1C(=O)N[C@H]1CCCNC1 [AZD7762] (partner 0.2 µM)
# Outline: as §1
# [4] = compound: C1=CC2=NC=CN=C2C=C1/C=C/3\C(=O)NC(=O)S3 + COc1cccc2cc(-c3nc([C@H]4CC[C@H](C(=O)O)CC4)n4ncnc(N)c34)[nH]c12 [OSI-027] (partner 0.5 µM)
# Outline: as §1
Cell Line,relative viability ([1]; first compound 0.01 µM),relative viability ([1]; first compound 0.03162 µM),relative viability ([1]; first compound 0.1 µM),relative viability ([1]; first compound 0.3162 µM),relative viability ([1]; first compound 1 µM),relative viability ([2]; first compound 0.01 µM),relative viability ([2]; first compound 0.03162 µM),relative viability ([2]; first compound 0.1 µM),relative viability ([2]; first compound 0.3162 µM),relative viability ([2]; first compound 1 µM),relative viability ([3]; first compound 0.01 µM),relative viability ([3]; first compound 0.03162 µM),relative viability ([3]; first compound 0.1 µM),relative viability ([3]; first compound 0.3162 µM),relative viability ([3]; first compound 1 µM),relative viability ([4]; first compound 0.02 µM),relative viability ([4]; first compound 0.06325 µM),relative viability ([4]; first compound 0.2 µM),relative viability ([4]; first compound 0.6325 µM),relative viability ([4]; first compound 2 µM)
EBC-1,0.215,0.222,0.178,0.23,0.21,–,–,–,–,–,–,–,–,–,–,–,–,–,–,–
EKVX,0.178,0.199,0.204,0.201,0.169,0.783,0.859,0.999,0.782,0.966,0.778,0.772,0.746,0.686,0.634,0.69,0.405,0.683,0.683,0.408
EMC-BAC-2,0.872,0.982,0.899,0.832,0.838,1.14,1.25,1.22,1.16,1.09,1.09,1.18,1.14,1.12,1.04,0.307,0.436,0.416,0.37,0.251
EPLC-272H,1.13,0.814,0.833,0.748,0.497,0.29,0.235,0.21,0.716,0.451,0.209,0.21,0.252,0.174,0.306,0.303,0.264,0.307,0.256,0.287
H3255,0.288,–,0.238,0.241,0.219,0.888,–,1.02,0.625,0.422,0.837,0.681,1.01,0.78,0.826,0.519,0.592,0.526,0.627,0.473
HARA,0.67,0.531,0.472,0.362,0.217,0.652,0.862,0.682,0.374,0.679,0.429,0.418,0.461,0.373,0.334,0.482,0.396,0.586,0.43,0.195
HCC-15,0.854,0.855,0.82,0.969,0.974,0.316,0.258,0.294,0.37,0.397,1.15,1.06,1.24,1.17,1.39,0.759,0.672,0.726,0.641,0.373
HCC-44,0.973,1.01,1.01,1.04,0.993,0.974,1.11,1.32,1.09,0.942,0.98,1,1.01,1.02,0.862,0.775,0.445,0.656,0.463,0.225
HCC-78,0.568,1.04,1,0.707,0.581,–,–,–,–,–,0.609,0.536,0.557,0.61,0.608,0.362,0.408,0.352,0.347,0.279
